Measurements from PubChem BioAssay AID463203 (Broad Institute, 2010).
Activity calls are given as the source filed them.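 The calls were made as follows: active = more than half of replicate measurements showing over 20% loss of kinase signal relative to plate controls; inconclusive = some but at most half of replicates over 20% loss; inactive = no replicate over 20% signal loss.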

Target: Glycogen synthase kinase-3 alpha (Homo sapiens) (UniProt P49840)
Assay: concentration-response blocking of human GSK3A – biochemical, luminescence, cell-free homogeneous, retest, dose response (AID 463203)
Conditions: GSK-3 alpha enzyme, ADP-Glo luminescence, 60 min

Sequence of Glycogen synthase kinase-3 alpha (Homo sapiens) (P49840 whole entry, looked up): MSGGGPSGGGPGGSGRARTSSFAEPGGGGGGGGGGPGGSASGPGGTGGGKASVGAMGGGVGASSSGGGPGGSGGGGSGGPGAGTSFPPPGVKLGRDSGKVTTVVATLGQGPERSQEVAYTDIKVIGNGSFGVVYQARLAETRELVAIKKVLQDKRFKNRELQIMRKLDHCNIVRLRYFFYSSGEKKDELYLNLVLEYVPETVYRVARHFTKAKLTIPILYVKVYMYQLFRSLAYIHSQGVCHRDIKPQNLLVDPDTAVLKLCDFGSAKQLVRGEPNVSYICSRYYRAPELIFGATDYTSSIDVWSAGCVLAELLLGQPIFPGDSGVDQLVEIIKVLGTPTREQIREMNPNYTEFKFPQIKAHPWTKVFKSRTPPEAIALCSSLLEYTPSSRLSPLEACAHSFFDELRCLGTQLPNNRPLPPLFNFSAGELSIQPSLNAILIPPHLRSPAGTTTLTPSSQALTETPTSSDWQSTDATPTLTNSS

For `CCOC(=O)c1ccc(NC(=O)CSCc2ccco2)cc1`, the AC50 was > 30 µM (inactive).

`Cc1cc(C)c(OCC(O)CNC(C)(C)C)c(C)c1` (stereo not drawn) was tested, and the AC50 was > 30 µM (inactive).

Work on `O=C(COC(=O)Cc1ccsc1)Nc1ccc(Cl)cn1` yielded an AC50 of 28.4 µM.

For `O=C(O)COc1ccc2c(c1)O/C(=C\c1cccs1)C2=O`, the AC50 was 26.2 µM.

`Cn1c(SCc2nc(-c3ccc(Cl)cc3)no2)nnc1-c1ccccc1` was tested, and the AC50 was > 30 µM (inactive).

With `COc1ccc(-n2c(C)nc(N)c2C(=O)c2ccccc2)cc1` the AC50 was > 30 µM (inactive).

With `Cn1c2ccc(F)cc2c2nc3ccccc3nc21` the AC50 was > 30 µM (inactive).

With `CC(=O)c1ccc(N=Nc2c(C)[nH][nH]c2=O)cc1` the AC50 was 24.5 µM.

`CCS(=O)(=O)N1CCN(c2ccnc3cc(Cl)ccc23)CC1` was tested, and the AC50 was > 30 µM (inactive).

For `Cc1cccc(Nc2ncccc2C(=O)O)c1C`, the AC50 was > 30 µM (inactive).

In the case of `S=C(NCc1ccc2c(c1)OCO2)NCc1ccc2c(c1)OCO2`, the AC50 is reported as 25.5 µM.

In the case of `Nc1ccccc1-c1nc2ccccc2[nH]1`, the AC50 is reported as > 30 µM (inactive).

`CNc1ccc(/C=C/C(=O)c2ccc3c(c2)OCCO3)cc1[N+](=O)[O-]` was tested, and the AC50 was > 30 µM (inactive).

With `O=C(NCC1CCN(Cc2ccccc2Cl)CC1)Nc1cccc(Cl)c1` the AC50 was > 30 µM (inactive).

`CCCCCCCCCCOC(=O)Cn1c(COc2ccc(OC)cc2)[n+](C)c2ccccc21` was tested, and the AC50 was > 30 µM (inactive).

Compound `O=C1NC(=Nc2ccccc2Cl)S/C1=C\c1cc([N+](=O)[O-])ccc1O` has an AC50 of 3.23 µM.

With `Cc1c(/C=N/Nc2ccc([N+](=O)[O-])cn2)c2ccccc2n1Cc1ccccc1` the AC50 was > 30 µM (inactive).

`CCn1c2ccccc2c2nc3ccccc3nc21` was tested, and the AC50 was > 30 µM (inactive).

For `N#C/C(=C/Nc1ccccc1)c1ccsc1`, the AC50 was > 30 µM (inactive).

In the case of `COc1ccc(C(=O)Nc2nc(C)c(C)s2)cc1OC`, the AC50 is reported as > 30 µM (inactive).

`N#CCSc1nnc(-c2ccc3c(c2)OCO3)o1` was tested, and the AC50 was 18.1 µM.

`CCc1cc(C(=O)c2ccc(C)cc2)c(NC(=O)CCl)s1` was tested, and the AC50 was > 30 µM (inactive).

With `COC(=O)c1sc(NC(=O)COc2ccc(OC)cc2)nc1C` the AC50 was 28.6 µM.

For `N#Cc1c2c(c(NCc3ccco3)n3c1nc1ccccc13)CCC2`, the AC50 was > 30 µM (inactive).

With `O=C(CSc1nnc(SCc2ccc(Cl)cc2)s1)N/N=C/c1ccccc1C(=O)O` the AC50 was > 30 µM (inactive).

`Cc1ccccc1C(=O)O/N=C(\N)c1cccc([N+](=O)[O-])c1` was tested, and the AC50 was > 30 µM (inactive).

With `CCCCOC(=O)C1=C(C)Nc2ncnn2C1c1ccc(OC)c(OC)c1OC` (stereo not drawn) the AC50 was 12.4 µM.

In the case of `O=C(NCCO)c1ccccc1O`, the AC50 is reported as > 30 µM (inactive).

`COc1cc(C(=O)NCC(=O)N/N=C(C)\C=C\c2ccccc2)cc(OC)c1OC` was tested, and the AC50 was > 30 µM (inactive).

`CNC(=O)CSc1nnc(-c2ccco2)n1-c1ccccc1OC` was tested, and the AC50 was > 30 µM (inactive).

`CN(Cc1c(C(=O)N/N=C/c2cccc(O)c2)nnn1-c1nonc1N)c1ccccc1` was tested, and the AC50 was 2.8 µM.

In the case of `CCCCCCCCCCCCCCCC[N+](C)(C)CC`, the AC50 is reported as > 30 µM (inactive).

For `Nc1nc(NCCOCCO)nc(N2CCCCCC2)c1[N+](=O)[O-]`, the AC50 was 26.4 µM.

With `N#CC(C#N)=C1CCc2ccccc2N1` the AC50 was > 30 µM (inactive).

`CCc1ccccc1NC(=O)CSc1nnc([C@@H](N)Cc2c[nH]c3ccccc23)o1` was tested, and the AC50 was > 30 µM (inactive).

For `Nn1c(-c2ccc(O)cc2)nnc1-c1ccc(O)cc1`, the AC50 was > 30 µM (inactive).

`CN1/C(=C/C(=O)C2CC2)C(C)(C)c2ccccc21` was tested, and the AC50 was > 30 µM (inactive).

`C=CCc1cccc(/C=N/n2c(C)nnc2C)c1O` was tested, and the AC50 was > 30 µM (inactive).

`O=C(NCCCN1CCN(Cc2ccccc2Cl)CC1)Nc1ccccc1` was tested, and the AC50 was > 30 µM (inactive).

Compound `CCc1ccc(N2CSC3=C(C#N)C(c4cccs4)CC(=O)N3C2)cc1` (stereo not drawn) has an AC50 of 28.8 µM.

With `CC(C)(C)c1ccc(CSc2nnc(-c3ccccc3NC(=O)c3ccccc3)o2)cc1` the AC50 was > 30 µM (inactive).

For `COc1ccc2[nH]c(C(=O)O)c(NS(=O)(=O)c3ccc(OC)c(OC)c3)c2c1`, the AC50 was 6.63 µM.

Compound `Cc1ccc(N2CC(C(=O)Nc3ncc([N+](=O)[O-])s3)CC2=O)cc1` (stereo not drawn) has an AC50 of 11.4 µM.

For `CC(C)C(=O)NC(=S)/C=C1/N(C)c2ccccc2C1(C)C`, the AC50 was > 30 µM (inactive).

With `Cc1nc2c(ccc3c2ccc2nc(C)sc23)s1` the AC50 was > 30 µM (inactive).

Compound `CCN1/C(=C/C(C)=O)Sc2ccc(OC)cc21` has an AC50 of 16.5 µM.

In the case of `O=c1oc2cc(O)ccc2c2ccccc12`, the AC50 is reported as > 30 µM (inactive).

In the case of `O=C(Nc1cccnc1)c1scc2c1OCCO2`, the AC50 is reported as 23.5 µM.

In the case of `CC(C)(C)OC(=O)N1CCC(NC(=O)c2[nH]cnc2C(=O)Nc2ccccc2)CC1`, the AC50 is reported as > 30 µM (inactive).

For `CN1CCN(Cc2c(C(=O)N/N=C/c3cccc(Br)c3)nnn2-c2nonc2N)CC1`, the AC50 was 20.2 µM.

`Cc1nc2c(C)cccn2c1/C(O)=C1\C(=O)C(=O)N(CCN2CCOCC2)C1c1cccs1` (stereo not drawn) was tested, and the AC50 was > 30 µM (inactive).

In the case of `Nc1nc(SCCOc2ccccc2)n[nH]1`, the AC50 is reported as > 30 µM (inactive).

With `COc1ccccc1-c1noc(CSc2nc(C)cc(=O)[nH]2)n1` the AC50 was > 30 µM (inactive).

For `O=C(O)C1CCCC[C@H]1C(=O)Nc1ncc([N+](=O)[O-])s1` (stereo partly drawn), the AC50 was > 30 µM (inactive).

In the case of `O=C(NCCCN1CCOCC1)c1cc(Cl)ccc1[N+](=O)[O-]`, the AC50 is reported as > 30 µM (inactive).

In the case of `Nc1nc(SCC(=O)Nc2ccc(Oc3ccccc3)cc2)n[nH]1`, the AC50 is reported as > 30 µM (inactive).

For `Cc1csc(NC(=O)C2CC(=O)N(c3ccc(C)c(C)c3)C2)n1` (stereo not drawn), the AC50 was > 30 µM (inactive).

In the case of `N#CCCn1cc(C(=O)N2CCCCC2)c(-c2cccc([N+](=O)[O-])c2)n1`, the AC50 is reported as > 30 µM (inactive).

`OCc1cn(-c2ccccc2)nn1` was tested, and the AC50 was > 30 µM (inactive).

`COC(=O)C1=C(C)Nc2[nH]c(=S)[nH]c(=O)c2C1c1ccc(O)cc1` (stereo not drawn) was tested, and the AC50 was > 30 µM (inactive).

`N#Cc1cc(Cl)c(NCC2CCCO2)cc1C#N` (stereo not drawn) was tested, and the AC50 was > 30 µM (inactive).

For `Cc1ccc(OCC(=O)N2CCN(c3nnc(-c4ccc(C)cc4)c4ccccc34)CC2)cc1`, the AC50 was > 30 µM (inactive).

`COc1ccc(C(=O)c2c(C(F)(F)F)oc3c2C(=O)c2ccccc2C3=O)cc1` was tested, and the AC50 was > 30 µM (inactive).

For `CCOC(=O)c1cnc2cc(F)c(F)cc2c1N1CCN(C)CC1`, the AC50 was > 30 µM (inactive).

In the case of `CCN1CCN(c2nc(Nc3ccccc3F)nc(N)c2[N+](=O)[O-])CC1`, the AC50 is reported as > 30 µM (inactive).

`CS(=O)(=O)N1CCN(c2ccccc2NC(=O)c2ccc(Br)o2)CC1` gave an AC50 of 1.94 µM.

`CCOC(=O)c1c(NC(=S)N2CCOCC2)sc2c1CCN(C(=O)OCC)C2` was tested, and the AC50 was > 30 µM (inactive).

`CCNC(=S)NNC(=O)c1cccs1` was tested, and the AC50 was > 30 µM (inactive).

`Nc1c(CO)nnn1-c1ccccc1` showed an AC50 of 11.4 µM.

`CCOC(=O)Cc1csc(NC(=O)C2CCCN(S(=O)(=O)c3cnc[nH]3)C2)n1` (stereo not drawn) was tested, and the AC50 was > 30 µM (inactive).

In the case of `COc1ccc(Nc2nc(Cl)c(C=O)s2)cc1`, the AC50 is reported as > 30 µM (inactive).

`O=C(CSc1ccc(F)cc1)Nc1ccc2c(c1)C(=O)NC2=O` was tested, and the AC50 was 12.5 µM.

With `COc1ccc(C2=Nn3c(nnc3-c3ccccc3)SC2)cc1OC` the AC50 was > 30 µM (inactive).

`O=C(NCc1ccccc1)c1ccc2c(=O)[nH]c3c(C(=O)NCC4CCCO4)sc(=S)n3c2c1` (stereo not drawn) was tested, and the AC50 was 14 µM.

In the case of `COc1ccc([N+](=O)[O-])cc1NC(=O)CCN1CCN(C)CC1`, the AC50 is reported as > 30 µM (inactive).

In the case of `COc1ccc(-c2csc3nc(C)nc(N4CCC(C)CC4)c23)cc1OC`, the AC50 is reported as > 30 µM (inactive).

In the case of `O=c1c2ccccc2oc2ccc(NCCCn3ccnc3)cc12`, the AC50 is reported as > 30 µM (inactive).

With `CCOC(=O)c1sc(NC(=O)C2CC2)nc1C` the AC50 was 15 µM.
